Experimental data as given in patent US4068070A, “α-Cyanoamine compounds and a process for producing the same” (Fuji Chemical Industry Co., Ltd., priority 1974, dated 1978).

Columns and labels:
Format in all cases: in vivo, mongrel adult dogs
[1] = tested on: arterial mean blood pressure; assay: Effects on arterial mean blood pressure
Outline: (§1)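 Adult mongrel dogs of both sexes were anesthetized with pentobarbital and thoracotomized. Test agents, suspended or dissolved in 0.2% CMC, pH 6 HCl solution or saline, were injected intravenously into the brachial vein. Hemodynamic and coronary sinus parameters were then recorded.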

aortic blood flow = assay: Effects on aortic blood flow
Outline: as §1

coronary sinus out flow = assay: Effects on coronary sinus out flow
Outline: as §1

[2] = tested on: coronary sinus oxygen tension; assay: Effects on coronary sinus oxygen tension
Outline: as §1

heart rate = assay: Effects on heart rate
Outline: as §1

COc1ccc(C(C#N)N2CCNCC2)cc1OC (stereo not shown) [Compound F]
Changes (%) of basal values, arterial mean blood pressure ([1]; 2.0 mg/kg i.v., 1 min): -1.3% | Changes (%) of basal values, arterial mean blood pressure ([1]; 2.0 mg/kg i.v., 5 min): -4.9% | Changes (%) of basal values, arterial mean blood pressure ([1]; 2.0 mg/kg i.v., 10 min): -3.3% | Changes (%) of basal values, arterial mean blood pressure ([1]; 2.0 mg/kg i.v., 20 min): -2.1% | Changes (%) of basal values, arterial mean blood pressure ([1]; 2.0 mg/kg i.v., 30 min): -0.4% | Changes (%) of basal values, arterial mean blood pressure ([1]; 2.0 mg/kg i.v., 40 min): 0% | Changes (%) of basal values, arterial mean blood pressure ([1]; 2.0 mg/kg i.v., imm.): +2.3% | Changes (%) of basal values, arterial mean blood pressure ([1]; 6.0 mg/kg i.v., 1 min): +15.8% | Changes (%) of basal values, arterial mean blood pressure ([1]; 6.0 mg/kg i.v., 5 min): -9.3% | Changes (%) of basal values, arterial mean blood pressure ([1]; 6.0 mg/kg i.v., 10 min): -12.5% | Changes (%) of basal values, arterial mean blood pressure ([1]; 6.0 mg/kg i.v., 20 min): -10.0% | Changes (%) of basal values, arterial mean blood pressure ([1]; 6.0 mg/kg i.v., 30 min): -5.2% | Changes (%) of basal values, arterial mean blood pressure ([1]; 6.0 mg/kg i.v., 40 min): -2.8% | Changes (%) of basal values, arterial mean blood pressure ([1]; 6.0 mg/kg i.v., imm.): +16.0% | Effects on arterial mean blood pressure (in words) ([1]; i.v., anesthetized dogs): an increase in blood pressure was observed immediately after administration, but thereafter, a long duration hypotensive effect was observed | Changes (%) of basal values, aortic blood flow (aortic blood flow; 2.0 mg/kg i.v., 1 min): +0.7% | Changes (%) of basal values, aortic blood flow (aortic blood flow; 2.0 mg/kg i.v., 5 min): -4.1% | Changes (%) of basal values, aortic blood flow (aortic blood flow; 2.0 mg/kg i.v., 10 min): -1.2% | Changes (%) of basal values, aortic blood flow (aortic blood flow; 2.0 mg/kg i.v., 20 min): 0% | Changes (%) of basal values, aortic blood flow (aortic blood flow; 2.0 mg/kg i.v., 30 min): 0% | Changes (%) of basal values, aortic blood flow (aortic blood flow; 2.0 mg/kg i.v., 40 min): 0% | Changes (%) of basal values, aortic blood flow (aortic blood flow; 2.0 mg/kg i.v., imm.): +9.2% | Changes (%) of basal values, aortic blood flow (aortic blood flow; 6.0 mg/kg i.v., 1 min): +12.1% | Changes (%) of basal values, aortic blood flow (aortic blood flow; 6.0 mg/kg i.v., 5 min): -2.2% | Changes (%) of basal values, aortic blood flow (aortic blood flow; 6.0 mg/kg i.v., 10 min): -2.0% | Changes (%) of basal values, aortic blood flow (aortic blood flow; 6.0 mg/kg i.v., 20 min): -1.2% | Changes (%) of basal values, aortic blood flow (aortic blood flow; 6.0 mg/kg i.v., 30 min): 0% | Changes (%) of basal values, aortic blood flow (aortic blood flow; 6.0 mg/kg i.v., 40 min): 0% | Changes (%) of basal values, aortic blood flow (aortic blood flow; 6.0 mg/kg i.v., imm.): +20.5% | Effects on aortic blood flow (in words) (aortic blood flow; i.v., anesthetized dogs): an increase in blood flow immediately after administration, followed by a decrease in blood flow | Changes(%) of basal values, coronary sinus out flow (coronary sinus out flow; 2.0 mg/kg i.v., 1 min): +2.9% | Changes(%) of basal values, coronary sinus out flow (coronary sinus out flow; 2.0 mg/kg i.v., 5 min): -1.7% | Changes(%) of basal values, coronary sinus out flow (coronary sinus out flow; 2.0 mg/kg i.v., 10 min): -4.4% | Changes(%) of basal values, coronary sinus out flow (coronary sinus out flow; 2.0 mg/kg i.v., 20 min): -3.1% | Changes(%) of basal values, coronary sinus out flow (coronary sinus out flow; 2.0 mg/kg i.v., 30 min): -1.0% | Changes(%) of basal values, coronary sinus out flow (coronary sinus out flow; 2.0 mg/kg i.v., 40 min): -0.2% | Changes(%) of basal values, coronary sinus out flow (coronary sinus out flow; 2.0 mg/kg i.v., imm.): +12.4% | Changes(%) of basal values, coronary sinus out flow (coronary sinus out flow; 6.0 mg/kg i.v., 1 min): +68.6% | Changes(%) of basal values, coronary sinus out flow (coronary sinus out flow; 6.0 mg/kg i.v., 5 min): +7.4% | Changes(%) of basal values, coronary sinus out flow (coronary sinus out flow; 6.0 mg/kg i.v., 10 min): +0.1% | Changes(%) of basal values, coronary sinus out flow (coronary sinus out flow; 6.0 mg/kg i.v., 20 min): -8.2% | Changes(%) of basal values, coronary sinus out flow (coronary sinus out flow; 6.0 mg/kg i.v., 30 min): -5.3% | Changes(%) of basal values, coronary sinus out flow (coronary sinus out flow; 6.0 mg/kg i.v., 40 min): -2.1% | Changes(%) of basal values, coronary sinus out flow (coronary sinus out flow; 6.0 mg/kg i.v., imm.): +74.5% | Effects on coronary sinus out flow (in words) (coronary sinus out flow; i.v., anesthetized dogs): increased markedly coronary sinus out flow immediately after administration, effect of which was, however, relatively transitory | Changes(%) of basal values, coronary sinus oxygen tension ([2]; 2.0 mg/kg i.v., 1 min): +1.4% | Changes(%) of basal values, coronary sinus oxygen tension ([2]; 2.0 mg/kg i.v., 5 min): -1.1% | Changes(%) of basal values, coronary sinus oxygen tension ([2]; 2.0 mg/kg i.v., 10 min): -1.4% | Changes(%) of basal values, coronary sinus oxygen tension ([2]; 2.0 mg/kg i.v., 20 min): -0.8% | Changes(%) of basal values, coronary sinus oxygen tension ([2]; 2.0 mg/kg i.v., 30 min): 0% | Changes(%) of basal values, coronary sinus oxygen tension ([2]; 2.0 mg/kg i.v., 40 min): 0% | Changes(%) of basal values, coronary sinus oxygen tension ([2]; 2.0 mg/kg i.v., imm.): +10.9% | Changes(%) of basal values, coronary sinus oxygen tension ([2]; 6.0 mg/kg i.v., 1 min): +20.3% | Changes(%) of basal values, coronary sinus oxygen tension ([2]; 6.0 mg/kg i.v., 5 min): +3.9% | Changes(%) of basal values, coronary sinus oxygen tension ([2]; 6.0 mg/kg i.v., 10 min): +1.0% | Changes(%) of basal values, coronary sinus oxygen tension ([2]; 6.0 mg/kg i.v., 20 min): -4.1% | Changes(%) of basal values, coronary sinus oxygen tension ([2]; 6.0 mg/kg i.v., 30 min): -1.2% | Changes(%) of basal values, coronary sinus oxygen tension ([2]; 6.0 mg/kg i.v., 40 min): -0.3% | Changes(%) of basal values, coronary sinus oxygen tension ([2]; 6.0 mg/kg i.v., imm.): +20.1% | Effects on coronary sinus oxygen tension (in words) ([2]; i.v., anesthetized dogs): slightly transitory as compared with those of compounds as mentioned above | increased oxygen tension ([2]; i.v., anesthetized dogs): about 20% | Changes(%) of basal values, heart rate (heart rate; 2.0 mg/kg i.v., 1 min): +2.6% | Changes(%) of basal values, heart rate (heart rate; 2.0 mg/kg i.v., 5 min): -1.5% | Changes(%) of basal values, heart rate (heart rate; 2.0 mg/kg i.v., 10 min): -2.3% | Changes(%) of basal values, heart rate (heart rate; 2.0 mg/kg i.v., 20 min): -1.8% | Changes(%) of basal values, heart rate (heart rate; 2.0 mg/kg i.v., 30 min): -0.7% | Changes(%) of basal values, heart rate (heart rate; 2.0 mg/kg i.v., 40 min): 0% | Changes(%) of basal values, heart rate (heart rate; 2.0 mg/kg i.v., imm.): +1.4% | Changes(%) of basal values, heart rate (heart rate; 6.0 mg/kg i.v., 1 min): +3.7% | Changes(%) of basal values, heart rate (heart rate; 6.0 mg/kg i.v., 5 min): -2.2% | Changes(%) of basal values, heart rate (heart rate; 6.0 mg/kg i.v., 10 min): -3.6% | Changes(%) of basal values, heart rate (heart rate; 6.0 mg/kg i.v., 20 min): -3.3% | Changes(%) of basal values, heart rate (heart rate; 6.0 mg/kg i.v., 30 min): -2.0% | Changes(%) of basal values, heart rate (heart rate; 6.0 mg/kg i.v., 40 min): -1.4% | Changes(%) of basal values, heart rate (heart rate; 6.0 mg/kg i.v., imm.): -7.2% | Effects on heart rate (in words) (heart rate; i.v., anesthetized dogs): slight negative chronotropic effects accompanied by an increase in heart rate immediately after administration
